Source: the supplement of paper PMC11451515

Tested on: P12-Ichikawa
Assay: cell viability relative to DMSO control; higher = less cytotoxic
Settings: 48 h
Procedure, shortened: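 In 1536-well plates, 5 μl of leukemia cells were seeded per well: 500 cells/well for NOMO1 or SEM and 1000 cells/well for P12-Ichikawa. Each line had first been adapted for at least four passages in each medium. Library compounds in DMSO were pin-dosed at 11 threefold concentrations between 47 μM and 0.79 nM, and CellTiter-Glo One luminescence was read after 48 h at 37°C. Viability is a per-plate percentage relative to DMSO wells, with cell-free wells as background.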

[1] = HPLM + 10% dialyzed FBS, 0.000781 µM
[2] = HPLM + 10% dialyzed FBS, 0.00234 µM
[3] = HPLM + 10% dialyzed FBS, 0.00702 µM
[4] = HPLM + 10% dialyzed FBS, 0.0211 µM
[5] = HPLM + 10% dialyzed FBS, 0.0632 µM
[6] = HPLM + 10% dialyzed FBS, 0.19 µM
[7] = HPLM + 10% dialyzed FBS, 0.569 µM
[8] = HPLM + 10% dialyzed FBS, 1.71 µM
[9] = HPLM + 10% dialyzed FBS, 5.12 µM
[10] = HPLM + 10% dialyzed FBS, 15.4 µM
[11] = HPLM + 10% dialyzed FBS, 46.1 µM
[12] = RPMI 5 mM glucose + 10% FBS, 0.000781 µM
[13] = RPMI 5 mM glucose + 10% FBS, 0.00234 µM
[14] = RPMI 5 mM glucose + 10% FBS, 0.00702 µM
[15] = RPMI 5 mM glucose + 10% FBS, 0.0211 µM
[16] = RPMI 5 mM glucose + 10% FBS, 0.0632 µM
[17] = RPMI 5 mM glucose + 10% FBS, 0.19 µM
[18] = RPMI 5 mM glucose + 10% FBS, 0.569 µM
[19] = RPMI 5 mM glucose + 10% FBS, 1.71 µM
[20] = RPMI 5 mM glucose + 10% FBS, 5.12 µM
[21] = RPMI 5 mM glucose + 10% FBS, 15.4 µM
[22] = RPMI 5 mM glucose + 10% FBS, 46.1 µM
[23] = RPMI 5 mM glucose + 10% dialyzed FBS, 0.000781 µM
[24] = RPMI 5 mM glucose + 10% dialyzed FBS, 0.00234 µM
[25] = RPMI 5 mM glucose + 10% dialyzed FBS, 0.00702 µM
[26] = RPMI 5 mM glucose + 10% dialyzed FBS, 0.0211 µM
[27] = RPMI 5 mM glucose + 10% dialyzed FBS, 0.0632 µM
[28] = RPMI 5 mM glucose + 10% dialyzed FBS, 0.19 µM
[29] = RPMI 5 mM glucose + 10% dialyzed FBS, 0.569 µM
[30] = RPMI 5 mM glucose + 10% dialyzed FBS, 1.71 µM
[31] = RPMI 5 mM glucose + 10% dialyzed FBS, 5.12 µM
[32] = RPMI 5 mM glucose + 10% dialyzed FBS, 15.4 µM
[33] = RPMI 5 mM glucose + 10% dialyzed FBS, 46.1 µM

Row | SMILES | cell viability [1] [%] | cell viability [2] [%] | cell viability [3] [%] | cell viability [4] [%] | cell viability [5] [%] | cell viability [6] [%] | cell viability [7] [%] | cell viability [8] [%] | cell viability [9] [%] | cell viability [10] [%] | cell viability [11] [%] | cell viability [12] [%] | cell viability [13] [%] | cell viability [14] [%] | cell viability [15] [%] | cell viability [16] [%] | cell viability [17] [%] | cell viability [18] [%] | cell viability [19] [%] | cell viability [20] [%] | cell viability [21] [%] | cell viability [22] [%] | cell viability [23] [%] | cell viability [24] [%] | cell viability [25] [%] | cell viability [26] [%] | cell viability [27] [%] | cell viability [28] [%] | cell viability [29] [%] | cell viability [30] [%] | cell viability [31] [%] | cell viability [32] [%] | cell viability [33] [%]
1 | c1cc(-c2sc(-c3ccncc3)c(-c3ccncc3)c2-c2ccncc2)ccn1 | 101 | 109 | 108 | 115 | 121 | 123 | 118 | 107 | 110 | 112 | 106 | 97.9 | 114 | 102 | 113 | 121 | 123 | 121 | 126 | 110 | 112 | 104 | 97.3 | 111 | 109 | 117 | 115 | 120 | 124 | 118 | 111 | 113 | 98.9
2 | CCc1cc(/C(C)=N/OCc2ccc(C3CCCCC3)c(C(F)(F)F)c2)ccc1CN1CC(C(=O)O)C1 | 111 | 110 | 112 | 119 | 120 | 114 | 121 | 108 | 105 | 30.3 | 18.9 | 109 | 99 | 105 | 108 | 110 | 106 | 108 | 107 | 94.4 | 22.5 | 18.7 | 111 | 111 | 116 | 109 | 109 | 116 | 114 | 106 | 100 | 20.7 | 18.6
3 | c1ccc(-c2nn3c(c2-c2ccnc4cc(OCCN5CCOCC5)ccc24)CCC3)nc1 | 120 | 114 | 111 | 119 | 112 | 112 | 97 | 109 | 103 | 94.9 | 84.5 | 112 | 117 | 123 | 115 | 112 | 96.2 | 89.8 | 106 | 119 | 73 | 74.6 | 110 | 120 | 122 | 119 | 112 | 113 | 112 | 108 | 102 | 99.3 | 84.8
4 | CC(C)(Cc1ccc2ccccc2c1)NC[C@@H](O)COc1cccc(Cl)c1C#N | 123 | 124 | 126 | 122 | 121 | 120 | 123 | 116 | 123 | 117 | 10.7 |  |  |  |  |  |  |  |  |  |  |  |  |  |  |  |  |  |  |  |  |  | 
5 | C[C@@]12OC(=O)[C@@]1(NC(=O)[C@@H]2CCCl)[C@@H](O)[C@H]\3CCC\C=C3 | 96.4 | 100 | 104 | 107 | 109 | 74.8 | 6.01 | 5.06 | 3.28 | 2.14 | 0.616 | 97.4 | 109 | 108 | 106 | 107 | 69.8 | 7.03 | 4.69 | 3.15 | 2.13 | 0.774 | 94 | 110 | 105 | 104 | 108 | 54.4 | 6.75 | 4.56 | 3.02 | 2.27 | 0.713
6 | CCOc1cc2c(c(F)c1OCC)C(=N)N(CC(=O)c1cc(N3CCOCC3)c(OC)c(C(C)(C)C)c1)C2 | 104 | 105 | 107 | 114 | 112 | 111 | 115 | 115 | 116 | 118 | 100 | 110 | 124 | 128 | 118 | 126 | 132 | 128 | 127 | 124 | 131 | 108 | 108 | 114 | 111 | 118 | 125 | 117 | 119 | 117 | 113 | 120 | 105
7 | Nc1cccc(-c2cc3c(Oc4cccc(O)c4)ncnc3[nH]2)c1 | 124 | 121 | 123 | 114 | 122 | 114 | 117 | 106 | 105 | 60.5 | 15.1 |  |  |  |  |  |  |  |  |  |  |  |  |  |  |  |  |  |  |  |  |  | 
8 | CCC(=O)O[C@@]1([C@H](C)C[C@H]2[C@@H]3C[C@H](F)\C4=C\C(=O)\C=C/[C@]4(C)[C@@]3(F)[C@@H](O)C[C@]12C)C(=O)SCF | 101 | 112 | 88 | 75.6 | 69.2 | 64.8 | 70.6 | 71.5 | 65.9 | 69.8 | 66.2 | 120 | 119 | 86.3 | 76.5 | 74.7 | 68.8 | 68.2 | 58.9 | 59.2 | 55.1 | 59.9 | 95.9 | 100 | 71.3 | 55.5 | 54.4 | 55.1 | 53.6 | 49.6 | 51.1 | 48.6 | 46.7
9 | CC(C)c1ccc2oc3nc(N)c(C(=O)O)cc3c(=O)c2c1 | 120 | 119 | 119 | 124 | 130 | 132 | 128 | 131 | 125 | 129 | 118 |  |  |  |  |  |  |  |  |  |  |  |  |  |  |  |  |  |  |  |  |  | 
10 | COC1=CC=C(C=C1)C/2=C/OC3=CC(=CC=C3C2=O)O | 122 | 116 | 114 | 112 | 124 | 111 | 115 | 102 | 106 | 104 | 96.7 | 120 | 120 | 115 | 120 | 121 | 112 | 118 | 111 | 113 | 114 | 103 | 116 | 111 | 115 | 118 | 108 | 105 | 117 | 104 | 108 | 96.2 | 101
11 | c1ccc2c(Oc3nc(Nc4ccc(N5CCOCC5)cc4)c4ncn(C5CCCCC5)c4n3)cccc2c1 | 116 | 118 | 126 | 132 | 126 | 121 | 126 | 132 | 134 | 137 | 130 |  |  |  |  |  |  |  |  |  |  |  |  |  |  |  |  |  |  |  |  |  | 
12 | CC1=C2N=C([NH]C2=CC(=C1)N3CCOCC3)\C4=C(NC[C@@H](O)C5=CC=CC(=C5)Cl)\C=C/NC4=O | 102 | 104 | 103 | 109 | 113 | 110 | 112 | 115 | 106 | 100 | 90.8 | 104 | 108 | 106 | 109 | 115 | 114 | 119 | 117 | 117 | 106 | 85.6 | 101 | 117 | 120 | 118 | 116 | 119 | 120 | 128 | 110 | 105 | 85.7
13 | CC1(C)O[C@H]2CC(=O)OC[C@]23[C@H]2CC[C@@]4(C)[C@H](c5ccoc5)OC(=O)[C@H]5O[C@]54[C@]2(C)C(=O)C[C@@H]13 | 95.9 | 107 | 101 | 105 | 110 | 110 | 115 | 102 | 115 | 99.5 | 110 | 88.3 | 102 | 102 | 93.8 | 98.4 | 107 | 106 | 95.6 | 107 | 105 | 112 | 90.8 | 96.2 | 104 | 97.6 | 105 | 95.2 | 101 | 100 | 96.1 | 98.2 | 96.7
14 | N#Cc1c(C2CCNCC2)cc(-c2c(O)cccc2OCC2CC2)nc1N | 113 | 113 | 112 | 110 | 108 | 108 | 106 | 107 | 101 | 106 | 92 | 116 | 125 | 123 | 117 | 109 | 97.2 | 108 | 105 | 105 | 106 | 91.3 | 114 | 116 | 119 | 126 | 105 | 114 | 111 | 107 | 107 | 99.7 | 85.9
15 | CN(C)[C@H]\1[C@@H]2[C@@H](O)[C@@H]\3C(=C)C4=C(C(=CC=C4)O)C(=O)C3=C(\O)[C@@]2(O)C(=O)\C(=C1O)C(N)=O |  |  |  |  |  |  |  |  |  |  |  | 115 | 120 | 124 | 126 | 115 | 128 | 120 | 125 | 122 | 111 | 99.1 | 126 | 122 | 119 | 123 | 129 | 128 | 118 | 117 | 125 | 119 | 107
16 | CC1(C)CC(=O)c2c(C(F)(F)F)nn(-c3ccc(C(N)=O)c(NC4CCC(OC(=O)CN)CC4)c3)c2C1 (stereo not drawn) | 107 | 86.9 | 96.8 | 96.5 | 102 | 88.6 | 62.2 | 42.1 | 36.4 | 36.3 | 37.9 | 83.8 | 93.7 | 91.7 | 95.4 | 99.1 | 66.3 | 35.2 | 33.2 | 29.2 | 28.8 | 27.3 | 92.9 | 92.9 | 93 | 91.9 | 89.6 | 82.4 | 41 | 32.3 | 33.3 | 28.8 | 28.5
17 | COc1ccc(-c2c(-c3ccc(O)cc3O)n[nH]c2C)cc1 | 108 | 101 | 117 | 112 | 114 | 106 | 112 | 107 | 105 | 101 | 78.1 | 99.8 | 105 | 105 | 100 | 110 | 106 | 105 | 112 | 102 | 95.6 | 68.6 | 101 | 106 | 110 | 111 | 107 | 113 | 113 | 113 | 105 | 101 | 89.5
18 | OC1=C(C=CC=C1)C2=CC=C(C=C2)C3=CSC4=C3C(=C(/C#N)C(=O)N4)/O | 124 | 127 | 124 | 124 | 119 | 119 | 112 | 116 | 114 | 111 | 110 |  |  |  |  |  |  |  |  |  |  |  |  |  |  |  |  |  |  |  |  |  | 
